US20210395327A1, “Growth Hormone-Releasing Hormone Antagonists and Uses Thereof” (United States Government As Represented By The Department …, priority 2019, published 2021)
Entries after “also recorded” stand apart in the source; their conditions may differ. Non-standard residues stand in square brackets, D forms with d. Residues, ends and D or L forms follow the SMILES beside them. *: point of attachment. Phe(F5) = N[C@@H](Cc1c(F)c(F)c(F)c(F)c1F)C(=O)O; hArg = N=C(N)NCCCC[C@H](N)C(=O)O; 12Ado = NCCCCCCCCCCCC(=O)O; Nle = CCCC[C@H](N)C(=O)O; Orn = NCCC[C@H](N)C(=O)O; Abu = CC[C@H](N)C(=O)O; PhAc = O=C(Cc1ccccc1)*

Legend:
[1] = tested on: bleomycin-induced lung inflammation and fibrosis; experiment: Bleomycin mouse model, lung histopathology scores; format: in vivo, C57Bl/6J mice; details: bleomycin-treated mice
Experimental: Abstract. Purpose. Growth hormone-releasing hormone (GHRH) is a 44-amino acid peptide that regulates growth hormone (GH) secretion. It was tested whether a GHRH receptor (GHRH-R) antagonist, MIA-602, would inhibit bleomycin-induced lung inflammation and/or fibrosis in C57Bl/6J mice. Methods. It was tested whether MIA-602 (5 μg or vehicle given subcutaneously [SC] on days 1-21) would decrease lung inflammation (at day 14) and/or fibrosis (at day 28) in mice treated with intraperitoneal (IP) bleomycin (0.8 units on days 1, 3, 7, 10, 14 and 21). […] Results. Inflammation (histopathologic scores assessed blindly) was less evident in mice treated with MIA-602 for 14 days. […] GHRH-R antagonist increased basal and maximal oxygen consumption of cultured lung fibroblasts. […] Conclusions. MIA-602 reduced lung inflammation and fibrosis due to bleomycin.
Experimental animals. 8-week old C57Bl/6J male mice (The Jackson Laboratory, Bar Harbor, Me.) were used in these experiments. Mice weighed about 26 grams at the start. Mice were randomly allocated to the experimental groups and housed in identical filter top cages in a ventilated rack. Mice were exposed to a 12-hour light/dark cycle and had free access to standard laboratory chow and water.
Bleomycin and GHRH-R antagonist treatment. Mice were treated with 0.8 units of bleomycin (Bleomycin for Injection USP, Hospira, Lake Forest, Ill.) intraperitoneally (IP) on days 1, 3, 7, 10, 14 and 21 (Collins S, Chan-Li Y, Oh M, Vigeland C, Limjunyawong N, Mitzner W, Powell J D, Horton M R (2016). JCI Insight 1(4):1-13). Mice (randomly assigned) were simultaneously treated subcutaneously (sc) with MIA-602 (5 μg/day) or its vehicle (100 μL/day). MIA-602 was dissolved in DMSO (ACS grade; Sigma-Aldrich) and diluted 1:500 in normal saline for daily sc injection on days 0-21.
Tissue preparations. Mice were killed by CO2 inhalation before any treatment, or on days 14 or 28 for micro-CT scans of lungs and harvesting of lung tissue (Vande Vel de G, Poelmans J, De Langhe E, Hillen A, Vanoirbeek J, Himmelreich U, Lories R (2016). Dis Model Mech 9:91). The right mainstem bronchus was ligated and the right lung removed and frozen at −80° C. for hydroxyproline (HP) assays. The left lung was filled with 10% buffered formalin at […] cm H2O pressure, the bronchus ligated, and the lung fixed in formalin. Fixed lungs were embedded in wax and 5 μm sections stained with hematoxylin and eosin (H&E) or Masson's trichrome stain.
Lung histopathology. Fibrosis was quantified in trichrome-stained sections using a modification of the Ashcroft score that describes grades of fibrosis. Inflammation in lung tissue was quantified in H&E stained sections (Hubner R, Gitter W, El Mokhtari N, Mathiak M, Both M, Bolte H, Freitag-Wolf S, Bewig B (2008). Biotechniques 44:507-517).
Data analysis. Data are reported as arithmetic means±SEM or SD as indicated. Confidence intervals (5-95%) and ranges were used to describe histopathological scores. ANOVA followed by Dunnett's test or the Bonnferoni correction was used for multiple comparisons with a control or among groups (Kusuoka H, Hoffman J (2002). Circ Res 91:662-671). At least six mice were planned to be available at each time point in each group, so that there would be sufficient power to detect a 20% change in lung hydroxyproline given an assumed coefficient of variance of 0.2. P≤0.05 was considered significant.

[2] = tested on: mouse lung fibroblasts (Mlg 2908); experiment: Cellular respiration, Seahorse XF Cell Mito Stress Test; format: cell-based
Experimental: Lung fibroblasts. Newborn mouse lung fibroblasts (Mlg 2908) were obtained from the American Type Culture Collection, Manassas, Va. and cultured in Eagle's minimal essential medium. Cells were grown in 6-well plates before incubation with 1 or 5 μM MIA-602 or vehicle, RNA isolation, and oxygen consumption measurements.
Cellular respiration. The effects of MIA-602 on mouse lung fibroblast oxygen consumption was measured using the Agilent Seahorse XF Cell Mito Stress Test (Agilent Technologies, Santa Clara, Calif.) (Divakaruni A, Paradyse A, Ferrick D, Murphy A, Jastroch M (2014). Methods in Enzymology 547:309-354). Fibroblasts were incubated with vehicle, 1 or 5 μM MIA-602 for 24 hours before measurement of oxygen consumption. One day before assay 80,000 fibroblasts were seeded into Seahorse 24-well plates (n=6 wells per condition). Basal respiration was established and oligomycin, FCCP and rotenone plus antimycin A were added sequentially to measure ATP production, uncoupled respiration; and, non-mitochondrial oxygen consumption (Wangpaichitr, Wu C, Li Y, Nguyen D, Kandemir H, Shah S, Chen S, Feun L, Prince J, Kuo M, Savaraj N (2017). Oncotarget 8(30):49275-49292).

[3] = tested on: PAK1-STAT3/NF-κB in gastric cancer cells; details: Gan et al. 2016; cited from earlier work

Q: Which results are given for `CCCC[C@H](NC(=O)[C@@H](NC(=O)[C@H](CC(=O)O)NC(=O)[C@H](CCC(N)=O)NC(=O)[C@H](CC(C)C)NC(=O)[C@H](CC(C)C)NC(=O)[C@H](CCCN)NC(=O)[C@H](Cc1c[nH]cn1)NC(=O)[C@H](C)NC(=O)[C@H](CO)NC(=O)[C@H](CC(C)C)NC(=O)[C@H](CCC(N)=O)NC(=O)[C@H](CC)NC(=O)[C@H](CC(C)C)NC(=O)[C@@H](NC(=O)[C@H](CCCN)NC(=O)[C@H](Cc1c[nH]cn1)NC(=O)[C@H](Cc1ccc(OC)cc1)NC(=O)[C@H](CCCCNC(=N)N)NC(=O)[C@H](C)NC(=O)[C@@H](NC(=O)[C@H](Cc1c(F)c(F)c(F)c(F)c1F)NC(=O)[C@@H](NC(=O)[C@H](C)NC(=O)[C@H](CC(=O)O)NC(=O)[C@@H](CCCNC(=N)N)NC(=O)[C@H](Cc1ccc(O)cc1)NC(=O)CCCCCCCCCCCNC(=O)Cc1ccccc1)[C@@H](C)CC)[C@@H](C)O)C(C)C)[C@@H](C)CC)C(=O)N[C@H](CCCNC(=N)N)C(=O)N[C@@H](CCCCNC(=N)N)C(N)=O` [MIA-602, PhAC-Ada, Tyr D-Arg, Asp, Ala, Ile, 5FPhe, Thr, Ala, Har, Tyr(Me), His, Orn, Val, Leu, Abu, Gin, Leu, Ser, Ala, His, Om, Leu, Leu, Gin, Asp, Ile; Nle, D-Arg, Har NH2, reference compound] ({PhAc-12Ado}-Y[dR]DAI[Phe(F5)]TA[hArg]Y(Me)H[Orn]VL[Abu]QLSAH[Orn]LLQDI[Nle][dR][hArg]-NH2)?
A: lung inflammation histopathologic score, 5%-95% CI ([1]; after 14 days, n=4): 0.4-1.4; lung inflammation histopathologic score, range ([1]; after 14 days, n=4): 0.6-1.2; lung fibrosis histopathologic score (modified Ashcroft), 5%-95% CI ([1]; after 28 days, n=5): 1.1-2.9; lung fibrosis histopathologic score (modified Ashcroft), range ([1]; after 28 days, n=5): 1.0-3.0; lung fibrosis, histopathology (in words) ([1]; MIA-602 vs vehicle): decreased; also recorded: Less fibrosis appeared to be present; lung inflammation, histopathology (in words) ([1]; MIA-602 vs vehicle): decreased; also recorded: Less inflammation appeared to be present; basal respiration / basal oxygen consumption (in words) ([2]; 5 μM for 24 hours, vs vehicle): increased; maximal, uncoupled respiration (after FCCP) (in words) ([2]; 5 μM for 24 hours, vs vehicle): increased; spare respiratory capacity (in words) ([2]; 5 μM for 24 hours, vs vehicle): increased; non-mitochondrial respiration (after antimycin A and rotenone) (in words) ([2]; 1 and 5 μM for 24 hours): appeared to increase; signaling pathways in gastric cancer cells (in words) [3]: downregulates p21 activated kinase and STAT3 and NFκB; also recorded: inhibits signaling pathways, including PAK1-STAT3/NF-κB
